What was measured:
[1] = MTT cell viability / cytotoxicity assay, HeLa cells; assay type: cell-based; conditions: human; 500 μM 2, 24 h, MTT
Description: (§1) Cells were plated in flat-bottom 96-well plates at a density of 3 × 10^3 cells per well. After 12 h of cell attachment, the cell culture medium was replaced with 100 μL of pre-warmed media containing the compounds at different concentrations. After 24–72 h of incubation, cell proliferation was assessed by the MTT assay. A fresh mixture of 10 μL of thiazolyl blue tetrazolium bromide (MTT) and 90 μL of medium were freshly added to each well. After incubation for 4 h, the medium was gently removed. The formazan crystals that formed were dissolved in 110 μL of DMSO, and the absorbance was subsequently measured with a plate reader (Perkin Elmer) at 490 nm. EC50 values were calculated using Origin software. To measure the cytotoxicity of 2, HeLa cells, HUVECs, Saos-2 cells and CCC-HEH-2 cells were incubated with 100 μL of 1–500 μM 2 for 24 h, and then, cell viability was determined. To measure the cytotoxicity of TCO-Dox or Dox, HeLa cells, HUVECs, Saos-2 cells or CCC-HEH-2 cells were incubated with 200 μL of 0.001–10 μM TCO-Dox or Dox for 72 h, and the cell viability was determined. To determine the cytotoxicity of activated Dox, HeLa cells, HUVECs, […], and then, 2 was removed and 200 μL of 0.0001–10 μM TCO-Dox was added for 72 h of incubation, and cell viability was determined. […]
(§2) Prodrug activation efficacy in cells: Cells were plated on flat bottom 96-well plates at a
(§3) density of 3x10^3 cells per well. After 12 h attachment, cells were incubated with 100 µL
(§4) 500 µM of 2 for 6 h before removing 2 and the addition of 200 µL 0.0001-10 µM of […]

[2] = MTT cell viability / cytotoxicity assay, HUVECs; assay type: cell-based; conditions: human; 500 μM 2, 24 h, MTT
Description: as §1, §2, §3, §4

[3] = system: CCC-HEH-2 cells; test: Clonogenic assay, CCC-HEH-2 cells; assay type: cell-based, human; conditions: pre-treated with 500 μM 2 for 6 h
Description: Supplementary Figure 17. Clonogenic assay of different cell lines before and after treatment with 2. HeLa cells, HUVECs and Saos-2 cells were seeded at density of 400 cells per well, CCC-HEH-2 cells were seeded at density of 200 cells per well. Cells were incubated with 500 µM 2 for 6 h in the treatment groups. Cells were not treated with compound 2 in the control groups. Colonies were harvest approximately 10 days after seeding. Scale bar, 10 mm.
Supplementary Figure 18. Cytotoxicity of activated Dox against HeLa cells and HUVECs. HeLa cells or HUVECs at the density of 3x10^3 cells per well were incubated with 100 µL of pre-warmed medium containing compound 2 at 300 or 500 µM for 6 h. After washing with PBS, 100 µL of 0.0001-10 µM TCO-Dox was added. After 72 h, cell proliferation was assessed by the MTT assay (n= 6). Error bars indicate standard […]
Supplementary Figure 19. […] At each time point, the remaining 2, corresponding generated 3 and remaining TCO-Dox were determined by UPLC-MS/MS. […]
Clonogenic assay of cells in vitro: Clonogenic assay was performed according to the standard protocol.6 2×10^5 attached cells were treated with 500 µM of 2 for 6 h in culture dishes. Cells were then detached, re-suspended in cultural medium and counted accurately. […]
The glutaraldehyde crystal violet mixture was removed carefully. […] The number of the colonies was counted using a stereomicroscope. […]

## Cc1nnc(-c2ccc(CC(=O)NCCCCC(NC(=O)Cc3ccc4ccccc4c3)C(=O)NC(Cc3ccc(OP(=O)(O)O)cc3)C(=O)NC(Cc3ccccc3)C(=O)O)cc2)nn1 (stereo not drawn) [compound 2, NapK(Tz)YpF]
[1]
  viability at 24 h, 500 μM: > 85%
[2]
  viability at 24 h, 500 μM: > 85%
[3]
  Surviving Fraction, CCC-HEH-2: 92.2 ±8.3%
